Here are results for 24 compounds from patent publication US20090004185A1, “AMINO-SUBSTITUTED QUINAZOLINE DERIVATIVES AS INHIBITORS OF BETA-CATENIN/TCF-4 PATHWAY AND CANCER TREATMENT AGENTS” (WYETH, priority 2007, published 2009).

The subject of assay [1] is β-catenin/Tcf-4. As to the kind of experiment: cells. The settings on record: Homo sapiens, 24 hours of incubation with compound, ratio Firefly/Renilla luciferase. The class given is cell-based. In outline: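 SW480-derived lines with integrated reporters (Tcf-4-driven firefly luciferase; SV40 firefly as specificity control; SV40 Renilla for cell number/toxicity), treated 24 hours with titrated compounds, final 0.316% DMSO. Dual-luciferase read-out; firefly/Renilla ratio as % of control, duplicate plates, IC50 (nM) from curve fit.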

For assay [2], the system named is SV40-Luc. The experiment in a line: SV40-Luc control luciferase reporter assay, SV 5A8 cell line (SV40-Luc and SV40-R-Luc), control for non-specific inhibitors. The settings on record: Homo sapiens, SV5A8, 24 h, SV 5A8 cells derived from SW480; 24 hours of incubation with compound; ratio Firefly/Renilla luciferase. The class given is cell-based, human. In short, it runs like this:
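Cells were plated and, 20-24 hours later, treated with titrated compound (0.316% DMSO final). After 24 hours they were lysed or given Dual-Glo reagent, and firefly then Renilla luminescence was measured. IC50s came from firefly/Renilla ratios as % of control.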
In general terms: Reporter assays use an easily measured gene product as a stand-in for the process of interest.

Setting [3] is: SW480, 24 h, Tcf 33.13 cells derived from SW480.
[4] abbreviates: Tcf22C11, 24 h, Tcf 22C11 cells derived from SW480.

SMILES strings stand for the structures.

As usually defined, the IC50 is the concentration at which inhibition is half-maximal. For `Cc1ccc2c(NCc3ccc(NC(=O)c4ccc(Cl)cc4)cc3)nc(NCCc3ccccn3)nc2c1` [Example 197, 4-chloro-N-{4-[({7-methyl-2-[(2-pyridin-2-ylethyl)amino]quinazolin-4-yl}amino)methyl]phenyl}benzamide], the IC50 in assay [1] (setting [3]) was 382 nM; in assay [1] (setting [4]) it was 376 nM; in assay [2], over 2390 nM.

For `Cc1ccc2c(NCc3ccc(NC(=O)c4ccc(F)cc4)cc3)nc(N3CCN(c4ccccn4)CC3)nc2c1` [Example 200, 4-fluoro-N-[4-({[7-methyl-2-(4-pyridin-2-ylpiperazin-1-yl)quinazolin-4-yl]amino}methyl)phenyl]benzamide], the values for the IC50 in assay [1] (setting [3]), in assay [1] (setting [4]) and in assay [2] were 491 nM, 804 nM and over 4560 nM, respectively.

Take `Cc1ccc2c(NCc3ccc(NC(=O)c4ccc(F)cc4)cc3)nc(N(C)CCCN(C)C)nc2c1` [Example 201, N-{4-[({2-[[3-(dimethylamino)propyl](methyl)amino]-7-methylquinazolin-4-yl}amino)methyl]phenyl}-4-fluorobenzamide]: the IC50 in assay [1] (setting [3]) is 664 nM; in assay [1] (setting [4]) it was 1310 nM; in assay [2] it was over 4990 nM.

As to `Cc1ccc2c(NCc3ccc(NC(=O)c4ccc(F)cc4)cc3)nc(N(C)Cc3ccccc3)nc2c1` [Example 203, N-{4-[({2-[benzyl(methyl)amino]-7-methylquinazolin-4-yl}amino)methyl]phenyl}-4-fluorobenzamide], the IC50 was 579 nM in assay [1] (setting [3]), 590 nM in assay [1] (setting [4]) and over 9890 nM in assay [2].

Regarding `COC[C@@H]1CCCN1c1nc(NCc2ccc(NC(=O)c3ccc(F)cc3)cc2)c2ccc(C)cc2n1` [Example 205, 4-fluoro-N-{4-[({2-[(2S)-2-(methoxymethyl)pyrrolidin-1-yl]-7-methylquinazolin-4-yl}amino)methyl]phenyl}benzamide], the values for the IC50 in assay [1] (setting [3]), in assay [1] (setting [4]) and in assay [2] were 3150 nM, over 2500 nM and over 10000 nM, respectively.

Regarding `CCN(C)c1nc(NCc2ccc(NC(=O)c3ccc(F)cc3)cc2)c2ccc(C)cc2n1` [Example 210, N-{4-[({2-[ethyl(methyl)amino]-7-methylquinazolin-4-yl}amino)methyl]phenyl}-4-fluorobenzamide], the IC50 in assay [1] (setting [3]) is 825 nM; in assay [1] (setting [4]), 1380 nM; in assay [2] it was over 5640 nM.

Turning to `CCN(CC)c1nc(NCc2ccc(NC(=O)c3ccc(F)cc3)cc2)c2ccc(C)cc2n1` [Example 211, N-[4-({[2-(diethylamino)-7-methylquinazolin-4-yl]amino}methyl)phenyl]-4-fluorobenzamide], the IC50 was 396 nM in assay [1] (setting [3]), 558 nM in assay [1] (setting [4]) and over 2730 nM in assay [2].

As for `Cc1ccc2c(NCc3ccc(NC(=O)c4ccc(F)cc4)cc3)nc(N3CCN(c4ccccc4)CC3)nc2c1` [Example 212, 4-fluoro-N-[4-({[7-methyl-2-(4-phenylpiperazin-1-yl)quinazolin-4-yl]amino}methyl)phenyl]benzamide], the half-maximal inhibitory concentration (IC50) was 2680 nM in assay [1] (setting [3]), 3100 nM in assay [1] (setting [4]) and over 12900 nM in assay [2].

As for `Cc1ccc2c(NCc3ccc(NC(=O)c4ccc(F)cc4)cc3)nc(N3CCN(CC(=O)N4CCCC4)CC3)nc2c1` [Example 213, 4-fluoro-N-{4-[({7-methyl-2-[4-(2-oxo-2-pyrrolidin-1-ylethyl)piperazin-1-yl]quinazolin-4-yl}amino)methyl]phenyl}benzamide], the figures for the IC50 in assay [1] (setting [3]), in assay [1] (setting [4]) and in assay [2] were 1390 nM, 1710 nM and over 12400 nM, respectively.

Consider `Cc1ccc2c(NCc3ccc(NC(=O)c4ccc(F)cc4)cc3)nc(N(C)CCO)nc2c1` [Example 214, 4-fluoro-N-{4-[({2-[(2-hydroxyethyl)(methyl)amino]-7-methylquinazolin-4-yl}amino)methyl]phenyl}benzamide], for which the IC50 was 379 nM in assay [1] (setting [3]), 452 nM in assay [1] (setting [4]) and over 1090 nM in assay [2].

Consider `Cc1ccc2c(NCc3ccc(NC(=O)c4ccc(F)cc4)cc3)nc(N3CCN(Cc4ccc5c(c4)OCO5)CC3)nc2c1` [Example 215, N-{4-[({2-[4-(1,3-benzodioxol-5-ylmethyl)piperazin-1-yl]-7-methylquinazolin-4-yl}amino)methyl]phenyl}-4-fluorobenzamide], for which the IC50 in assay [1] (setting [3]) was 3190 nM; in assay [1] (setting [4]), 1960 nM; in assay [2], over 12000 nM.

For the compound `Cc1ccc2c(NCc3ccc(NC(=O)c4ccc(F)cc4)cc3)nc(N3CCN(c4ncccn4)CC3)nc2c1` [Example 216, 4-fluoro-N-[4-({[7-methyl-2-(4-pyrimidin-2-ylpiperazin-1-yl)quinazolin-4-yl]amino}methyl)phenyl]benzamide], the figures for the IC50 in assay [1] (setting [3]), in assay [1] (setting [4]) and in assay [2] were 315 nM, 464 nM and over 3220 nM, respectively.

Regarding `Cc1ccc2c(NCc3ccc(NC(=O)c4ccc(F)cc4)cc3)nc(N3CCN(C=O)CC3)nc2c1` [Example 217, 4-fluoro-N-[4-({[2-(4-formylpiperazin-1-yl)-7-methylquinazolin-4-yl]amino}methyl)phenyl]benzamide], the IC50 in assay [1] (setting [3]) was 3680 nM; in assay [1] (setting [4]) it was 1860 nM; in assay [2], over 16300 nM.

Consider `CCOC(=O)N1CCN(c2nc(NCc3ccc(NC(=O)c4ccc(F)cc4)cc3)c3ccc(C)cc3n2)CC1` [Example 218, ethyl 4-[4-({4-[(4-fluorobenzoyl)amino]benzyl}amino)-7-methylquinazolin-2-yl]piperazine-1-carboxylate], for which the results for the IC50 in assay [1] (setting [3]), in assay [1] (setting [4]) and in assay [2] were 939 nM, 1280 nM and over 15200 nM, respectively.

On to `Cc1ccc2c(NCc3ccc(NC(=O)c4ccc(F)cc4)cc3)nc(N3CCN(CC(=O)NC(C)C)CC3)nc2c1` [Example 219, 4-fluoro-N-(4-{[(2-{4-[2-(isopropylamino)-2-oxoethyl]piperazin-1-yl}-7-methylquinazolin-4-yl)amino]methyl}phenyl)benzamide], for which the IC50 in assay [1] (setting [3]) was 1420 nM; in assay [1] (setting [4]) it was 1800 nM; in assay [2], over 14600 nM.

In the case of `COCCN(C)c1nc(NCc2ccc(NC(=O)c3ccc(F)cc3)cc2)c2ccc(C)cc2n1` [Example 220, 4-fluoro-N-{4-[({2-[(2-methoxyethyl)(methyl)amino]-7-methylquinazolin-4-yl}amino)methyl]phenyl}benzamide], the IC50 in assay [1] (setting [3]) was 682 nM; in assay [1] (setting [4]), 1140 nM; in assay [2] it was over 8510 nM.

Take `Cc1ccc2c(NCc3ccc(NC(=O)c4ccc(F)cc4)cc3)nc(N(C)Cc3ccco3)nc2c1` [Example 221, 4-fluoro-N-{4-[({2-[(2-furylmethyl)(methyl)amino]-7-methylquinazolin-4-yl}amino)methyl]phenyl}benzamide]: the figures for the IC50 in assay [1] (setting [3]), in assay [1] (setting [4]) and in assay [2] were 1060 nM, 1240 nM and over 8200 nM, respectively.

For the compound `Cc1ccc2c(NCc3ccc(NC(=O)c4ccc(F)cc4)cc3)nc(N(C)CCc3ccccn3)nc2c1` [Example 222, 4-fluoro-N-{4-[({7-methyl-2-[methyl(2-pyridin-2-ylethyl)amino]quinazolin-4-yl}amino)methyl]phenyl}benzamide], the IC50 in assay [1] (setting [3]) is 650 nM; in assay [1] (setting [4]), 918 nM; in assay [2], over 7880 nM.

On to `CC(=O)N1CCCN(c2nc(NCc3ccc(NC(=O)c4ccc(F)cc4)cc3)c3ccc(C)cc3n2)CC1` [Example 223, N-[4-({[2-(4-acetyl-1,4-diazepan-1-yl)-7-methylquinazolin-4-yl]amino}methyl)phenyl]-4-fluorobenzamide], for which the IC50 in assay [1] (setting [3]) is 2660 nM; in assay [1] (setting [4]), 4460 nM; in assay [2], over 15600 nM.

Consider `Cc1ccc2c(NCc3ccc(NC(=O)c4ccc(F)cc4)cc3)nc(N3CCCCC3CCO)nc2c1` (stereo not drawn) [Example 224, 4-fluoro-N-{4-[({2-[2-(2-hydroxyethyl)piperidin-1-yl]-7-methylquinazolin-4-yl}amino)methyl]phenyl}benzamide], for which the IC50 in assay [1] (setting [3]) is 781 nM; in assay [1] (setting [4]) it was 1000 nM; in assay [2] it was over 9740 nM.

As to `Cc1ccc2c(NCc3ccc(NC(=O)c4ccc(F)cc4)cc3)nc(N3CCC(N4CCCC4)CC3)nc2c1` [Example 226, 4-fluoro-N-[4-({[7-methyl-2-(4-pyrrolidin-1-ylpiperidin-1-yl)quinazolin-4-yl]amino}methyl)phenyl]benzamide], the results for the IC50 in assay [1] (setting [3]), in assay [1] (setting [4]) and in assay [2] were 754 nM, 866 nM and over 9280 nM, respectively.

As for `CCN1CCN(c2nc(NCc3ccc(NC(=O)c4ccc(F)cc4)cc3)c3ccc(C)cc3n2)CC1` [Example 227, N-[4-({[2-(4-ethylpiperazin-1-yl)-7-methylquinazolin-4-yl]amino}methyl)phenyl]-4-fluorobenzamide], the 50% inhibitory concentration (IC50) was 736 nM in assay [1] (setting [3]), 1150 nM in assay [1] (setting [4]) and over 10000 nM in assay [2].

With `Cc1ccc2c(NCc3ccc(NC(=O)c4ccc(F)cc4)cc3)nc(N3CCC[C@H]3CN3CCCC3)nc2c1` [Example 228, 4-fluoro-N-{4-[({7-methyl-2-[(2S)-2-(pyrrolidin-1-ylmethyl)pyrrolidin-1-yl]quinazolin-4-yl}amino)methyl]phenyl}benzamide], the IC50 in assay [1] (setting [3]) was 2210 nM; in assay [1] (setting [4]), 1900 nM; in assay [2] it was over 4640 nM.

`Cc1ccc2c(NCc3ccc(NC(=O)c4ccc(F)cc4)cc3)nc(NCCCN3CCN(C)CC3)nc2c1` [Example 229, 4-fluoro-N-(4-{[(7-methyl-2-{[3-(4-methylpiperazin-1-yl)propyl]amino}quinazolin-4-yl)amino]methyl}phenyl)benzamide]: the IC50 in assay [1] (setting [3]) is 2320 nM; in assay [1] (setting [4]), 2190 nM; in assay [2] it was over 4620 nM.
